The record followed here is article PMC12662201, “How ATP and dATP reposition class III ribonucleotide reductase cone domains to regulate enzyme activity” (Science Advances, 2025).

One assay deals with T1, StNrdD (WT-StNrdD) (Streptococcus thermophilus, UniProt A0A3G6JS83).
T1 construct: gene DF198_09700; full length, 734 residues, N-terminal His6 with thrombin site (pET15b), tag cleaved before crystallization; expressed in E. coli T7 Express; dimer; Cys400 thiyl, Gly697 glycyl radical
T1 sequence (A0A3G6JS83 1-734): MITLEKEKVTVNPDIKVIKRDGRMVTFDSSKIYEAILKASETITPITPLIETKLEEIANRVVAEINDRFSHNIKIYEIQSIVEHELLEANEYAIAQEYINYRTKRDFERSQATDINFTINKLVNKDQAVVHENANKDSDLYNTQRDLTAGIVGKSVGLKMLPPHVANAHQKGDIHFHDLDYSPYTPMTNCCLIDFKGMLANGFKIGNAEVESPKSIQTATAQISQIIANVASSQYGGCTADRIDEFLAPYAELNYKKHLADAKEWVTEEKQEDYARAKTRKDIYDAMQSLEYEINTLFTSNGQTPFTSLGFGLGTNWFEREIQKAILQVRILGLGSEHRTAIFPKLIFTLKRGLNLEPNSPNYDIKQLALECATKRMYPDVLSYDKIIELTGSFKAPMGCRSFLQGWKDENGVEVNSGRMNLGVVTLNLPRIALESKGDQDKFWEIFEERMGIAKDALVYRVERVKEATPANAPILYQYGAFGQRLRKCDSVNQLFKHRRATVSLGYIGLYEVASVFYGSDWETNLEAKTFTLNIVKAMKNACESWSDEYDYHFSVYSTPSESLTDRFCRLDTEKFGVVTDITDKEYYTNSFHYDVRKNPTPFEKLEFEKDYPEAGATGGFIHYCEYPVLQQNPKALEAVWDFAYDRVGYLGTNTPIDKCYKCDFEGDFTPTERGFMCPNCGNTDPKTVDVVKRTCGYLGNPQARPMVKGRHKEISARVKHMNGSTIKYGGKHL
Briefly: cryo-EM ([…] Å). The class given is binding. Conditions: allosteric specificity effector site at dimer interface; seen with both ATP and dATP; 1 mM TTP, 1 mM GTP, pH 7.5.

In the next assay the target is T2, ΔConeOnly-StNrdD (Streptococcus thermophilus, UniProt A0A3G6JS83).
T2 construct: gene DF198_09700; cone domain removed (residues 1 to 115 deleted), connector kept; N-terminal His6 with thrombin site (pET15b); expressed in E. coli T7 Express
T2 sequence (A0A3G6JS83 116-734): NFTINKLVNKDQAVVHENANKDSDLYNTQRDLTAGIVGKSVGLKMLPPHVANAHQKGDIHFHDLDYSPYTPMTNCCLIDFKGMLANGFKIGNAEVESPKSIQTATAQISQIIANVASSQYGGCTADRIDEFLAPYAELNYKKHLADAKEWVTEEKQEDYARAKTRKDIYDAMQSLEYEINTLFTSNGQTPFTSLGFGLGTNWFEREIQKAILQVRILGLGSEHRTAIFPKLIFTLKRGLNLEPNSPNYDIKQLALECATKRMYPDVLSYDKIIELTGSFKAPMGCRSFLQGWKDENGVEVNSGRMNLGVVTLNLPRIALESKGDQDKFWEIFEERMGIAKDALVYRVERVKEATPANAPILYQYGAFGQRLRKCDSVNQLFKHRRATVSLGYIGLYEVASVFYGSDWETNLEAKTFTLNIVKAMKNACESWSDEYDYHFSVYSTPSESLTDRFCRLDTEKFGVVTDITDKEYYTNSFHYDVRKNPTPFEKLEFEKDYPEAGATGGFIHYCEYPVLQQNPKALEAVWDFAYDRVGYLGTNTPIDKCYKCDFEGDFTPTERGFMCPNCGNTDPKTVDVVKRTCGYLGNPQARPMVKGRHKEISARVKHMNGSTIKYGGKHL
Briefly: LC-MS/MS of dGTP product after glycyl radical activation. Conditions: 1 mM GTP, 1 mM TTP, no activity effector; 0.15 µM glycyl radical; 37 °C, 120 s; anaerobic. The class given is biochemical.

As for `Cc1cn([C@H]2C[C@H](O)[C@@H](COP(=O)(O)OP(=O)(O)OP(=O)(O)O)O2)c(=O)[nH]c1=O` [TTP], the “cryo-EM (3.6 Å)” value at StNrdD (WT-StNrdD) is given as “both structures have density for the TTP specificity effector bound at the dimer interface”.

In the case of `Nc1nc2c(ncn2[C@@H]2O[C@H](COP(=O)(O)OP(=O)(O)OP(=O)(O)O)[C@@H](O)[C@H]2O)c(=O)[nH]1` [GTP], the “LC-MS/MS of dGTP product after glycyl radical activation” value at ΔConeOnly-StNrdD is recorded as “GTP turnover proceeds in the absence of allosteric inhibitor dATP, although at a lower yield”.
